{"source": "patent EP0523675A1", "about": "“Inhibitory agent against HIV superinfection” (priority 1991, dated 1993)", "test_system": "HTLV-IIIB virus (superinfection of L-2 cells)", "assay": "Inhibition of superinfection of L-2 cells with HTLV-IIIB, fluorescent antibody technique using V-17 (anti-p18) antibody", "format": "cell-based, HIV (Human Immunodeficiency Virus)", "settings": "peptide final concentration 1 mg/ml, mixed with HTLV-IIIB virus liquid M.O.I. = 3.2 for 30 min at room temperature, then inoculated into L-2 cells; checked every 4 days; Fig. 2", "note": "Where no end group is shown, it is not given here.", "data": [{"sequence": "TKGPSKLNDRADSRRS [CD4 peptide (45-60)]", "values": [{"measurement": "inhibitory effect on superinfection", "value": "not at all observed"}]}]}
